Experiments:
[1] = molecular target: T1, recombinant, human protein tyrosine phosphatase (PTP) 1B (hPTP1B) (Homo sapiens, UniProt P18031); experiment: Inhibition of tri-phosphorylated insulin receptor dodecaphosphopeptide dephosphorylation by hPTP1B; assay type: biochemical; conditions: 50 μM IR triphosphopeptide substrate, 5 min preincubation and 5 min reaction at 37° C., malachite green-ammonium molybdate phosphate detection
T1 construct: made in house
T1 sequence (P18031 1-435): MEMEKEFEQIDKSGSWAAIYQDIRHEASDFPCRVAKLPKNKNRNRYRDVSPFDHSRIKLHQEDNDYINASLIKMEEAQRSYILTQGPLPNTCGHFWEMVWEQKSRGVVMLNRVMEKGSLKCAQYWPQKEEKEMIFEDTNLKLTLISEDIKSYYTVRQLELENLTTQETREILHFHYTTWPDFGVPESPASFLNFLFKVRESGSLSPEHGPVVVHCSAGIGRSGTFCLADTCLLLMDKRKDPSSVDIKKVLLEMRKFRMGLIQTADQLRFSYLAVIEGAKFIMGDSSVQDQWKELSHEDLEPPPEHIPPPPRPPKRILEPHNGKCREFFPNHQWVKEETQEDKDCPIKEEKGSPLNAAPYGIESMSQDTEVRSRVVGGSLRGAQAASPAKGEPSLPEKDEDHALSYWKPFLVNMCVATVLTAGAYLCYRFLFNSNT

SMILES | melting point | IC50 [1] [nM]
CCCCCCCCCCCCNC(=O)c1cc(-c2ccccc2)c(OCC(=O)O)c(-c2ccccc2)c1 [Example 8, (5′-Dodecylcarbamoyl-[1,1′;3′,1″]terphenyl-2′-yloxy)-acetic acid] | 150 to 153 °C | 195
CCCCCCCCCCCCNC(=O)c1cc(-c2ccc(OC)cc2)c(OCC(=O)O)c(-c2ccc(OC)cc2)c1 [Example 9, (5′-Dodecylcarbamoyl-4,4″-dimethoxy-[1,1′;3′,1″]terphenyl-2′-yloxy)-acetic acid] | 65 to 68 °C | 165
CCCCCCCCCCCCNC(=O)c1cc(-c2ccc(OC)cc2)c(OCC(=O)O)c(-c2cccc(Cl)c2)c1 [Example 10, (3-Chloro-5′-dodecylcarbamoyl-4″-methoxy-[1,1°;3′]terphenyl-2′-yloxy)-acetic acid] | 114 to 117 °C | 102
CCCCCCCCCCCCNC(=O)c1cc(-c2cccc(OC)c2)c(OCC(=O)O)c(-c2cccc(OC)c2)c1 [Example 11, (5′-Dodecylcarbamoyl-3,3″-dimethoxy-[1,1′;3′1″]terphenyl-2′-yloxy)-acetic acid] | 57 to 58 °C | 115
CC(C)(C)c1ccc(COCCCCCCNC(=O)c2cc(-c3cccc(C(F)(F)F)c3)c(OCC(=O)O)c(-c3cccc(C(F)(F)F)c3)c2)cc1 [Example 13, {5′-[6-(4-tert-Butyl-benzyloxy)-hexylcarbamoyl]-3,3″-bis-trifluoromethyl-[1,1′;3′,1″]terphenyl-2′-yloxy}-acetic acid] | 156 to 158 °C | 320
O=C(O)COc1c(-c2cccc(C(F)(F)F)c2)cc(C(=O)NCCCCCCOCc2ccc(OCc3ccccc3)cc2)cc1-c1cccc(C(F)(F)F)c1 [Example 14, {5′-[6-(4-Benzyloxy-benzyloxy)-hexylcarbamoyl]-3,3″-bis-trifluoromethyl-[1,1′;3′1″]terphenyl-2′-yloxy}-acetic acid] | 127 to 130 °C | 366
COc1ccc(-c2cc(C(=O)NCCCCCCCCc3ccccc3)cc(-c3cccc(Cl)c3)c2OCC(=O)O)cc1 [Example 15, [3″-Chloro-4-methoxy-5′-(8-phenyl-octylcarbamoyl)-[1,1′;3′,1″]terphenyl-2′-yloxy]-acetic acid] | 79.2 to 80.5 °C | 186
COc1ccc(-c2cc(C(=O)N(C)CCCCCCCCc3ccccc3)cc(-c3cccc(Cl)c3)c2OCC(=O)O)cc1 [Example 16, {3″-Chloro-4-methoxy-5′-[methyl-(8-phenyl-octyl)-carbamoyl]-[1,1′;3′, 1″]terphenyl-2′-yloxy}-acetic acid] | 66.8 to 67.5 °C | 343
COc1cccc(-c2cc(C(=O)NCCCCCCCCc3ccccc3)cc(-c3cccc(OC)c3OCC(=O)O)c2)c1 [Example 17, [3,3″-Dimethoxy-5′-(8-phenyl-octylcarbamoyl)-[1,1′;3′,1″]terphenyl-2-yloxy]-acetic acid] | 67.3 to 68.7 °C | 284
O=C(O)COCCOc1c(-c2cccc(C(F)(F)F)c2)cc(C(=O)NCCCCCCc2ccccc2)cc1-c1cccc(C(F)(F)F)c1 [Example 18, {2-[5′-(6-Phenyl-hexylcarbamoyl)-3,3″-bis-trifluoromethyl-[1,1′;3′,1″]terphenyl-2′-yloxy]-ethoxy}acetic acid] | 74.7 to 75.9 °C | 710
O=C(O)COc1c(-c2cccc(C(F)(F)F)c2)cc(C(=O)NCCCCCCOCc2ccc(F)cc2F)cc1-c1cccc(C(F)(F)F)c1 [Example 19, {5′-[6-(2,4-Difluoro-benzyloxy)-hexylcarbamoyl]-3,3″-bis-trifluoromethyl-[1,1′;3′1″]terphenyl-2′yloxy}-acetic acid] | 149.9 to 150.6 °C | 728
O=C(O)COc1c(-c2cccc(C(F)(F)F)c2)cc(C(=O)NCCCCCCOCc2ccc(-c3ccccc3)cc2)cc1-c1cccc(C(F)(F)F)c1 [Example 20, {5′-[6-(Biphenyl-4-ylmethoxy)-hexylcarbamoyl]-3,3″-bis-trifluoromethyl-[1,1′;3′,1″]terphenyl-2′-yloxy}-acetic acid] | 133.2 to 133.9 °C | 379
O=C(O)COc1c(Br)cc(C(=O)N(CCc2ccccc2)Cc2ccccc2)cc1-c1ccccc1F [Example 69, [5-(Benzylphenethyl-carbamoyl)-3-bromo-2′-fluoro-biphenyl-2-yloxy]acetic acid] | > 85 °C (dec.) | 
COc1ccc(-c2cc(C(=O)NCCc3ccccn3)cc(-c3ccccc3F)c2OCC(=O)O)cc1 [Example 70, [2-Fluoro-4″-methoxy-5′-(2-pyridin-2-yl-ethylcarbamoyl)-[1,1′;3′,1″]-terphenyl-2′-yloxy]acetic acid] | > 102 °C (dec.) | 
COc1ccc(-c2cc(C(=O)NCCCc3ccccc3)cc(-c3ccccc3F)c2OCC(=O)O)cc1 [Example 71, [2-Fluoro-4″-methoxy-5′-(3-phenyl-propylcarbamoyl)-[1,1′;3′,1″]-terphenyl-2′-yloxy]acetic acid] | > 89 °C (dec.) | 
O=C(O)COc1c(Br)cc(C(=O)NCCc2ccccn2)cc1-c1ccccc1F [Example 72, [3-Bromo-2′-fluoro-5-(2-pyridin-2-yl-ethylcarbamoyl)-biphenyl-2-yloxy]acetic acid] | > 154 °C (dec.) | 
O=C(O)COc1c(Br)cc(C(=O)NCCCc2ccccc2)cc1-c1ccccc1F [Example 73, [3-Bromo-2′-fluoro-5-(3-phenyl-propylcarbamoyl)-biphenyl-2-yloxy]acetic acid] | > 90 °C (dec.) | 
COc1ccc(-c2cc(C(=O)NCCCC3CCCC3)cc(-c3ccccc3F)c2OCC(=O)O)cc1 [Example 74, [5′-(3-Cyclopentyl-propylcarbamoyl)-2-fluoro-4″-methoxy-[1,1′;3′,1″]-terphenyl-2′-yloxy]acetic acid] | > 97 °C (dec.) | 
O=C(O)COc1c(Br)cc(C(=O)NCCCC2CCCC2)cc1-c1ccccc1F [Example 75, [3-Bromo-5-(3-cyclopentyl-propylcarbamoyl)-2′-fluoro-biphenyl-2-yloxy]acetic acid] | > 127 °C (dec.) | 
COc1ccc(-c2cc(C(=O)NCCCCCCCCc3ccccc3)cc(-c3ccccc3F)c2OCC(=O)O)cc1 [Example 76, [2-Fluoro-4″-methoxy-5′-(8-phenyl-octylcarbamoyl)-[1,1′;3′,1″]-terphenyl-2′-yloxy]acetic acid] | > 84 °C (dec.) | 
O=C(O)COc1c(Br)cc(C(=O)NCCCCCCCCc2ccccc2)cc1-c1ccccc1F [Example 77, [3-Bromo-2′-fluoro-5-(8-phenyl-octylcarbamoyl)-biphenyl-2-yloxy]acetic acid] | > 79 °C (dec.) | 
COc1ccc(-c2cc(C(=O)NCCCCCCc3ccccc3)cc(-c3ccccc3F)c2OCC(=O)O)cc1 [Example 78, [2-Fluoro-4″-methoxy-5′-(6-phenyl-hexylcarbamoyl)-[1,1′;3′,1″]-terphenyl-2′-yloxy]acetic acid] | > 72 °C (dec.) | 
O=C(O)COc1c(Br)cc(C(=O)NCCCCCCc2ccccc2)cc1-c1ccccc1F [Example 79, [3-Bromo-2′-fluoro-5-(6-phenyl-hexylcarbamoyl)-biphenyl-2-yloxy]acetic acid] | > 84 °C (dec.) | 
CCCCCCCCCCCCNC(=O)c1cc(Br)c(OCCn2cnnn2)c(-c2cccc(OC)c2)c1 [Example 138, 5-Bromo-6-(2-tetrazol-1-yl-ethoxy)-3′-methoxy-biphenyl-3-carboxylic acid dodecylamide] | 100 to 101 °C | 
COc1ccc(-c2cc(C(=O)NCCCCCCc3ccccc3)cc(-c3cccc(C(F)(F)F)c3)c2OCC(=O)O)cc1 [Example 157, [4″-Methoxy-5′-(6-phenyl-hexylcarbamoyl)-3-trifluoromethyl-[1,1′;3′,1″]terphenyl-2′-yloxy]acetic acid] | 153 to 159 °C | 
CCCCCCCCCCCCNC(=O)c1cc(Br)c(OCCn2ccnn2)c(-c2cccc(C(F)(F)F)c2)c1 [Example 181, 5-Bromo-6-(2-[1,2,3]triazol-1-yl-ethoxy)-3′-trifluoromethyl-biphenyl-3-carboxylic acid dodecylamide] | 70.5 to 72.5 °C | 
CCCCCCCCCCCCNC(=O)c1cc(Br)c(OCCn2ncnn2)c(-c2cccc(C(F)(F)F)c2)c1 [Example 182, 5-Bromo-6-(2-tetrazol-2-yl-ethoxy)-3′-trifluoromethyl-biphenyl-3-carboxylic acid dodecylamide] | 75.6 to 76.2 °C | 
CCCCCCCCCCCCNC(=O)c1cc(Br)c(OCCn2cnnn2)c(-c2cccc(C(F)(F)F)c2)c1 [Example 183, 5-Bromo-6-(2-tetrazol-1-yl-ethoxy)-3′-trifluoromethyl-biphenyl-3-carboxylic acid dodecylamide] | 91.5 to 92.6 °C | 
CCCCCCCCCCCCNC(=O)c1cc(Br)c(OCCNC(N)=O)c(-c2cccc(C(F)(F)F)c2)c1 [Example 187, 5-Bromo-3′-trifluoromethyl-6-(2-ureido-ethoxy)-biphenyl-3-carboxylic acid dodecylamide] | 122.5 to 125.1 °C | 
CCCCCCCCCCCCNC(=O)c1cc(Br)c(OCCNC(=O)OC)c(-c2cccc(C(F)(F)F)c2)c1 [Example 188, [2-(3-Bromo-5-dodecylcarbamoyl-3′-trifluoromethyl-biphenyl-2-yloxy)-ethyl]-carbamic acid methyl ester] | 79.6 to 80.5 °C | 

Source: patent US7008636B2, “2,3,5-substituted biphenyls useful in the treatment of insulin resistance and hyperglycemia” (Wyeth, priority 1998, dated 2006)
